Data: US20120232113A1, “METHODS OF TREATING EMESIS USING GROWTH HORMONE SECRETAGOGUES” (HELSINN THERAPEUTICS (U.S.), INC., priority 2007, published 2012)
Square brackets hold non-standard residues; d marks the D form. Ends that are not written are not given here. Peptide text beside a SMILES is read from it. d2Nal = N[C@H](Cc1ccc2ccccc2c1)C(=O)O; Aib = CC(C)(N)C(=O)O

How the values were obtained:
[1] = system: ferrets treated with cisplatin; test: Anti-emetic response assay in ferrets treated with cisplatin; format: in vivo, ferret; details: for average vomiting episodes during the 4-hour observation period / average retching episodes during the 4-hour observation period: cisplatin 10 mg/kg i.p., two i.v. injections 30 min apart, ghrelin 0.25, ipamorelin 1.0 mg/kg/dose; for average vomiting episodes during the 4-hour observation period: saline control 1.78; for average retching episodes during the 4-hour observation period: saline control 4.89; for anti-emetic efficacy relative to control animals, conclusion in words: i.v., ghrelin 0.25 mg/kg/dose, ipamorelin 1.0 mg/kg/dose; for onset time of emetic response following cisplatin administration (latent period): vs saline control, 4-hour observation
Description: The purpose of this study was to evaluate the anti-emetic response of Ipamorelin following a single intravenous injection (slow bolus) in ferrets treated with cisplatin.
30 male ferrets (24-weeks old) were used in this experiment. Subsequent to arrival, all animals were subjected to a general physical examination by a qualified member of the veterinary staff to ensure normal health status. An acclimation period of at least one week was allowed between the animal receipt and the start of treatment in order to accustom the animals to the laboratory environment.
Animals were randomized into the following groups:
Dosing occurred on consecutive days with approximately equal numbers of animals from each group being dosed on each day. Immediately following a single intraperitoneal injection of cisplatin, the controUreference/test article was administered via a slow intravenous injection via the cephalic or saphenous vein. Thirty minutes later, a second slow intravenous injection of the controUreference/test article was administered via a slow intravenous injection via the cephalic or saphenous vein. On each occasion, the dose volume was 5 mL/kg (cisplatin as well as control/reference/test article) and the actual dose administered was based on the most recent practical body weight of each animal.
Following dosing, the ferrets were monitored and observed for episodes of emesis for an approximate four hour period, which was subdivided into 10-minute intervals. The time prior to the first episode of retching or vomiting was recorded (latent period), as well the total number of retching and vomiting periods, over each 10-minute interval, through the overall observation period (4 hours post dose).
For the purposes of this study, episodes of emesis were defined as rhythmic abdominal contractions associated with oral expulsion of solid or liquid material from the gastrointestinal tract (i.e. vomiting) or not associated with the passage of material (i.e. retching). An episode of retching and/or vomiting was considered separate when an animal changed position in the cage or when the interval between retches and/or vomits exceeds an approximate 5 second period.
The anti-emetic response was evaluated using the individual observation for: the latent period, the average of retching episodes per 10-minute interval with presence of retching, the average of vomiting episodes per 10-minute interval with presence of vomiting, the total frequency of retching episodes for the observation period, the total frequency of vomiting episodes for the observation period, the total number of 10-minute intervals with presence of retching and the total number of 10-minute intervals with presence of vomiting. Whenever there was no retching or vomiting episode for the whole animal observation period, the latent period was set to 4 hours and the average of retching/vomiting episodes per interval with presence of retching/vomiting was set to zero. Each of these seven parameters was submitted to the following statistical comparison.
The non-parametric Kruskal-Wallis test was used to compare all considered groups. If the Kruskal-Wallis test was significant (p<0.05), then the Saline Control group was compared to each treated group using Dunn's test.

[2] = system: cancer patients; test: 12 week double blind, placebo controlled, randomized parallel study, Anderson Symptom Assessment System (ASAS) test; format: in vivo, human; details: 12 weeks
Description: A double blind, placebo controlled, randomized study was designed to investigate the ability of growth hormone secretagogues to be used for the treatment of emetic conditions.
82 human subjects were enrolled in a 12 week parallel study. Of the 82 subjects, 74 subjects were classified in the intent to treat group (ITT). These 74 subjects all had active cancer, received at least one dose of study medication, and had at least one post-dose efficacy measurement. The 74 subjects were separated into two groups: the placebo group and the RC-1291 group. 30 of the 36 placebo group subjects and 33 of the 38 RC-1291 group subjects were receiving some form of chemotherapy. The RC-1291 group received 50 mg of RC-1291 in two 25 mg capsules daily. The placebo group received two capsules daily.
The effect of RC-1291 administered to cancer patients was compared to the effect of placebo administered to a similar group of patients. In order to determine the ability of RC-1291 to reduce a subject's cancer symptom burden, i.e. Quality-of-Life, subjects were administered the Anderson Symptom Assessment System (ASAS) test prior to, during and at the completion of the study. The ASAS test is conducted by asking subjects to rate on a 0-10 scale the severity of 10 symptoms: pain, fatigue, nausea, depression, anxiety, drowsiness, shortness of breath, appetite, sleep and feeling of well being (see, Palmer et al. (2005) J. Pain and Symptom Management 6:565-571). The text below reflects and inversion of the ASAS scores such that higher values reflect a better Quality-of-Life: […]

[3] = system: cancer patients; test: Separate crossover study (3 days treatment), ASAS nausea symptom scale; format: in vivo, human
Procedure: The effect of RC-1291 administered to cancer patients was compared to the effect of placebo administered to a similar group of patients. In order to determine the ability of RC-1291 to reduce a subject's cancer symptom burden, i.e. Quality-of-Life, subjects were administered the Anderson Symptom Assessment System (ASAS) test prior to, during and at the completion of the study. The ASAS test is conducted by asking subjects to rate on a 0-10 scale the severity of 10 symptoms: pain, fatigue, nausea, depression, anxiety, drowsiness, shortness of breath, appetite, sleep and feeling of well being (see, Palmer et al. (2005) J. Pain and Symptom Management 6:565-571). The text below reflects and inversion of the ASAS scores such that higher values reflect a better Quality-of-Life:
In a separate crossover study, 16 cancer patients were treated with RC-1291 or placebo as described above for 3 days, washed out for ˜5 days and then administered placebo or RC-1291 (whichever one they had not received in the initial 3 day period). 12 of 16 placebo group subjects and 11 of the 16 RC-1291 group subjects were receiving some form of chemotherapy.

Compound	average vomiting episodes during the 4-hour observation period [1]	average retching episodes during the 4-hour observation period [1]	anti-emetic efficacy relative to control animals, conclusion in words [1]	onset time of emetic response following cisplatin administration (latent period) [1]	reduction in number of retching episodes compared to saline control animals ([1]; ipamorelin 1.0 mg/kg/dose i.v., p<0.05) [%]	reduction in vomiting episodes relative to saline control animals ([1]; ipamorelin 1.0 mg/kg/dose i.v., p>0.05)	increase in total ASAS score relative to baseline ([2]; 50 mg daily in two 25 mg capsules, inverted ASAS scores (higher = better Quality-of-Life), placebo decrease of 5.13)	overall difference in total ASAS score between the two groups ([2]; RC-1291 50 mg daily vs placebo, p-0.0287)	ASAS nausea symptom scale, overall difference between treatment groups ([2]; RC-1291 50 mg daily vs placebo, p=0.0046)	onset of anti-nausea effects [3] [days]	ASAS nausea symptom scale, overall difference between treatments ([3]; RC-1291 vs placebo, p=0.0756)	nausea (ASAS nausea symptom scale), result in words ([3]; increased nausea with placebo)
Ghrelin: ghrelin peptide, reference article in the ferret study (GSSFLSPEHQRVQQRKESKKPPAKLQPR; ends and bridges not checked; UniProt Q9UBU3 24-51, looked up) [reference compound]	1.60	7.00	did not display a significant efficacy	Neither the onset time nor the numbers of retches or vomits were statistically different	–	–	–	–	–	–	–	–
CC(C)(N)C(=O)N[C@@H](Cc1c[nH]cn1)C(=O)N[C@H](Cc1ccc2ccccc2c1)C(=O)N[C@H](Cc1ccccc1)C(=O)N[C@@H](CCCCN)C(N)=O [Ipamorelin] (H-[Aib]H[d2Nal][dF]K-NH2)	0.75	1.14	significantly decreased the number of retching episodes	modest, non-statistically significant (p>0.05) delay	82	failed to reach statistical significance	–	–	–	–	–	–
CN(C)N(C)C(=O)[C@@]1(Cc2ccccc2)CCCN(C(=O)[C@@H](Cc2c[nH]c3ccccc23)NC(=O)C(C)(C)N)C1 [RC-1291]	–	–	–	–	–	–	1.52	6.66	1.46	≤ 3	0.71	Decreased nausea
